Here are results for two compounds from article PMC6891756, “Synthesis and Biological Evaluation of Novel Aminochalcones as Potential Anticancer and Antimicrobial Agents” (Molecules, 2019).

Data set [1] concerns Staphylococcus aureus DSM799. Put plainly: Microbial growth curve screening, S. aureus. The conditions noted are these: 0.1% (w/v), OD at 560 nm, control 1.67. It counts as cell-based. The method, boiled down:
(§1)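 0.1% (w/v) cpd final (DMSO vehicle); nutrient broth (bacteria), YM (fungi); 28 °C, shaking, 2–3 d; A560 q30 min; n=3; ΔOD vs DMSO ctrl; refs oxytetracycline (bacteria), nystatin (fungi).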

In another data set the test system is HT-29. Nature of the data set: SRB antiproliferative assay, HT-29. The data set is classed as cell-based, human. Particulars: SRB, 48 h, 1–100 µg·mL^−1, ND = not detected in the tested concentration range. In short, it runs like this: (§2)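 Overnight-attached cells (5·10^3/well) in serum-supplemented medium were treated 48 h with compounds at 1–100 µg·mL^−1. Protein content was then stained with sulforhodamine B, and IC50 values were derived from three independent experiments.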
In general terms: The SRB assay estimates cell density from bound dye.

The subject of data set [2] is all tested microorganisms. Put plainly: Growth curve screening, all tested microorganisms (pooled statement). It counts as cell-based. The conditions noted are these: 0.1% (w/v). The method, then: The antimicrobial screening tests were performed on two strains of bacteria: E. coli ATCC10536 and S. aureus DSM799, strain of yeast C. albicans DSM1386 and three strains of fungi: F. linii KB-F1, A. alternata CBS1526 and A. niger DSM1957. All microorganisms were obtained from the collection of the Faculty of Biotechnology and Food Microbiology, Wrocław University of Environmental and Life Sciences. The bacteria were cultured in nutrient broth (Biocorp, Warsaw, Poland), yeast and fungi in YM medium (3 g yeast extract, 3 g malt extract, 5 g bacteriological peptone and 10 g of glucose dissolved in 1 L of distilled water). The tests were carried out in 100-well microtiter plates. […] The optical density of the cell suspension was measured on Bioscreen C (Automated Growth Curve Analysis System Lab System, Vantaa, Finland) at 560 nm automatically, at regular intervals of 30 min for 2–3 days. […] To prepare the growth curves for each strain, the mean values of the absorbance in a function of time were used. The resulting antimicrobial activity was expressed as the increase of optical density (ΔOD) and was compared to that of the control cultures in the medium supplemented with dimethyl sulfoxide and also with reference substances: oxytetracycline (against bacteria), cycloheximide (against yeast) and nystatin (against fungi) (Sigma Aldrich).

Data set [3] concerns Staphylococcus aureus DSM799. Nature of the data set: MIC evaluation (broth method), S. aureus. The data set is classed as cell-based. The conditions noted are these: 48–72 h, read-out: Minimal inhibitory concentration S. aureus. The method, boiled down: (§3)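 Read-out at 560 nm after 48–72 h; MIC taken as lowest aminochalcone concentration giving complete growth inhibition, verified by no growth on nutrient agar or YM plates. Inocula 10^5 cell·mL^−1 in nutrient broth or YM medium; 30 °C for bacteria and yeast, 25 °C for fungi; triplicates.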

Data set [4] relates to Escherichia coli ATCC10536. Put plainly: Microbial growth curve screening, E. coli. The data set is classed as cell-based. Particulars: 0.1% (w/v), OD at 560 nm, control 1.61. In short, it runs like this: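 Read-out: ΔOD at 560 nm from automated growth curves (mean of 3 replicates) versus DMSO-supplemented control cultures. Test compounds were dosed at 0.1% (w/v) final. Nutrient broth was used for E. coli and YM medium for the fungi; incubation at 28 °C with continuous shaking.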

Data set [5] has as its system Fusarium linii KB-F1. Nature of the data set: Microbial growth curve screening, F. linii. The conditions noted are these: 0.1% (w/v), OD at 560 nm, control 1.95. It counts as cell-based. The method, boiled down:
as §1

Data set [6] has as its system human breast cancer cell line T47D. More on the design: method as in earlier work. Particulars: cited from earlier work.
For data set [7], the system named is Aspergillus niger DSM1957. Nature of the data set: MIC evaluation (broth method), A. niger. It counts as cell-based. Particulars: Aspergillus niger, DSM1957, 48–72 h, read-out: Minimal inhibitory concentration A. niger. In short, it runs like this:
as §3

Data set [8] can be described thus: SRB assay, normal fibroblasts COS7. The data set is classed as cell-based, green monkey. Particulars: green monkey, COS7 kidney fibroblasts (normal cell line), ND = not detected in the tested concentration range. The method, boiled down: (§4)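 SRB read-out after 48 h compound exposure (1–100 µg·mL^−1, DMSO stocks 10 mg·mL^−1); 5·10^3 cells/well, overnight attachment; IC50, n=3 independent runs in quadruplicate.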

Data set [9] concerns Alternaria alternata CBS1526. Put plainly: Microbial growth curve screening, A. alternata. It counts as cell-based. The conditions noted are these: 0.1% (w/v), OD at 560 nm, control 1.86. In short, it runs like this: as §1
The subject of data set [10] is all tested microorganisms. Nature of the data set: MIC evaluation, all tested strains (pooled statement). It counts as cell-based. The conditions noted are these: read-out: MIC values against all tested microorganisms. The method, then: (§5) Sterile 96-well microtiter plates (Sarstedt) with nutrient broth (for bacteria) (Biocorp) or YM medium (for yeast and filamentous fungi) were inoculated with a standardized cell suspension of bacteria and yeast or fungal spores of 10^5 cell·mL^−1, and supplemented with aminochalcones dissolved in DMSO. […] All analysis were conducted in triplicates. The plates were incubated at 30 °C (bacteria and yeast) or 25 °C (filamentous fungi) for 48–72 h. The results were measured with the Spark® Multimode Microplate Reader (Tecan, Männedorf, Switzerland) at a 560 nm wavelength. The minimal inhibitory concentration was defined as the lowest concentration of a tested compound that completely restricted the growth of the microorganism. In order to verify the obtained results, microbial cultures subjected to each concentration of aminochalcone were inoculated onto nutrient agar or YM plates and incubated as described above. The lack of growth on agar plate was a confirmation of the MIC of the tested compound. The resulting MIC values were compared with the reference substances: oxytetracycline (against bacteria), cycloheximide (against yeast) and nystatin (against fungi) (Sigma Aldrich).

The test system of data set [11] is Alternaria alternata CBS1526. Nature of the data set: MIC evaluation (broth method), A. alternata. The data set is classed as cell-based. Particulars: Alternaria alternata, CBS1526, 48–72 h, read-out: Minimal inhibitory concentration A. alternata. The method, boiled down: as §3
The subject of a further data set is LS180. Put plainly: SRB antiproliferative assay, LS180. The data set is classed as cell-based, human. Particulars: 1–100 µg·mL^−1, ND = not detected in the tested concentration range. In short, it runs like this: as §2
A further data set relates to LoVo. Nature of the data set: SRB antiproliferative assay, LoVo. It counts as cell-based, human. The conditions noted are these: 48 h, 1–100 µg·mL^−1, ND = not detected in the tested concentration range. In short, it runs like this: as §2
A further data set has as its system Candida albicans DSM1386. Put plainly: MIC evaluation (broth method), C. albicans. The conditions noted are these: DSM1386, broth method, 48–72 h, read-out: Minimal inhibitory concentration C. albicans. It counts as cell-based. The method, boiled down: as §3
The test system of data set [12] is Fusarium linii KB-F1. Nature of the data set: MIC evaluation (broth method), F. linii. Particulars: Fusarium, KBF1, 48–72 h, read-out: Minimal inhibitory concentration F. linii. It counts as cell-based. The method, then: as §5
The test system of a further data set is LoVo/DX. Put plainly: SRB antiproliferative assay, LoVo/DX. The data set is classed as cell-based, human. Particulars: 48 h, 1–100 µg·mL^−1, ND = not detected in the tested concentration range. The method, boiled down:
as §2

In data set [13] the test system is Escherichia coli ATCC10536. Put plainly: MIC evaluation (broth method), E. coli. It counts as cell-based. Particulars: 48–72 h, read-out: Minimal inhibitory concentration E. coli. The method, boiled down: as §3
Data set [14] concerns green monkey kidney fibroblasts COS7. Nature of the data set: SRB assay, normal fibroblasts COS7. The conditions noted are these: 48 h, normal cell line, ND = not detected in the tested concentration range. It counts as cell-based. The method, boiled down:
as §4

What is called IC50 is the concentration that gives 50% inhibition.

The structures appear in SMILES notation. Converted amounts (≈) assume the structure as drawn.

With `Nc1ccc(C(=O)/C=C/c2ccccc2)cc1` [Compound 3, 4′-Aminochalcone], the “∆OD S. aureus” value in data set [1] is recorded as 0.0. The IC50 in the data set on HT-29 (Homo sapiens, HT-29) was 1.98 ± 0.18 µg/mL (≈ 8.87 µM); with LS180 (Homo sapiens, LS180, 48 h), 4.68 ± 0.09 µg/mL (≈ 21 µM); in the data set with LoVo (Homo sapiens, LoVo), 2.84 ± 0.09 µg/mL (≈ 12.7 µM); with LoVo/DX (Homo sapiens, LoVo/DX) it was 2.26 ± 0.05 µg/mL (≈ 10.1 µM). In addition, the “growth inhibition of all tested microorganisms” value in data set [2] was “complete inhibition of the growth”. Moreover, the MIC in [3] was 0.25 µg/mL (≈ 1.12 µM); in data set [7] it was 0.5 µg/mL (≈ 2.24 µM); in data set [10], 0.25 to 0.5 µg/mL (≈ 1.12 to 2.24 µM); in [11], 0.5 µg/mL (≈ 2.24 µM); in the data set on Candida albicans DSM1386, 0.5 µg/mL (≈ 2.24 µM); with Fusarium linii KB-F1 [12] it was 0.25 µg/mL (≈ 1.12 µM). Also, the MIC in data set [13] is 0.5 µg/mL (≈ 2.24 µM). The “∆OD E. coli” value in [4] came out at 0.0. In the data set with Fusarium linii KB-F1 [5], the “∆OD F. linii” value is 0. The “IC50 T47D (literature)” value in [6] was 5.28 µg/mL (≈ 23.6 µM). The same compound displayed an IC50 at 48 h in [8] of 3.85 ± 0.28 µg/mL (≈ 17.2 µM). In addition, in [9], the “∆OD A. alternata” value came to 0.0.
Regarding `N.N.[Cl][Pt][Cl]` [Compound 19, Cisplatin, reference compound], the “IC50 HT-29” value in the data set on HT-29 is 16.73 ± 0.58 µg/mL. In addition, the “IC50 COS7” value in [14] turned out to be 3.86 ± 0.62 µg/mL. In addition, the “IC50 LS180” value with LS180 (48 h) was 1.49 ± 0.13 µg/mL. The “IC50 LoVo” value in the data set on LoVo amounted to 2.09 ± 0.12 µg/mL. Further, in the data set on LoVo/DX, the “IC50 LoVo/DX” value was determined as 2.03 ± 0.17 µg/mL.
